According to patent US20230063703A1, “DRUG AND FOOD FOR TREATING AND/OR PREVENTING ENTERITIS AND/OR HEPATITIS” (priority 2020, published 2023):
Read-outs that look alike come from different tables or passages of the source.

Key:
[1] = test system: kidneys; conditions: cited from earlier work; for toxicity on the kidneys: rat, in vivo, ip; for amino acid excretion: after 2 hours
[2] = Blood D-serine concentration in mice given drinking water containing D-serine; assay type: in vivo; conditions: free access to drinking water containing 1% D-serine
Description: The blood concentration of administered D-serine is preferably 5 nmol/mL or greater, more preferably 10 nmol/mL or greater and even more preferably 50 nmol/mL or greater. The D-serine blood concentration is also preferably 1 μmol/mL or lower, more preferably 0.5 μmol/mL or lower and even more preferably 0.1 μmol/mL or lower.

[3] = test system: DSS-induced colitis model mice; test: Enteritis-inhibiting effect of single species D-amino acids in DSS-induced colitis model mice; assay type: in vivo, mice (B6CL57); conditions: single D-amino acid in drinking water 3 weeks, then 2% DSS; 8th day; compared with water containing all five D-amino acids
Experimental: The DAI scores were assigned for the following: diarrhea symptom (normal: 0, soft feces: 1, mild diarrhea: 2, moderate diarrhea: 3, severe diarrhea: 4); bloody stool symptom (normal: 0, mild bloody stool: 1, moderate bloody stool: 2, severe bloody stool: 3, severe bloody stool with anal bleeding: 4); and body weight reduction (None: 0, 1% to 5%: 1, 5% to 10%: 2, 10% to 20%: 3, ÷20%: 4), and the total values were calculated (minimum 0 points, maximum 12 points), for each mouse.

SMILES | DAI score [3] | body weight reduction suppressing effect [3] | other results
N[C@H](CO)C(=O)O [D-Ser, D-serine] | equivalent to drinking water containing all five D-amino acids | equivalent to drinking water containing all five D-amino acids | toxicity on the kidneys ([1]; 26 mg/kg): no toxicity; toxicity on the kidneys ([1]; 267 mg/kg): toxicity of D-serine on the kidneys was exhibited; toxicity on the kidneys ([1]; 800 mg/kg): toxicity of D-serine on the kidneys was exhibited; amino acid excretion ([1]; rats, intraperitoneal, 26 mg/kg): no effect; amino acid excretion ([1]; rats, intraperitoneal, 80 mg/kg): no effect; amino acid excretion ([1]; rats, intraperitoneal, 267 mg/kg): significantly increased; amino acid excretion ([1]; rats, intraperitoneal, 800 mg/kg): significantly increased; nephrotoxicity ([1]; rats, intraperitoneal, doses such as 800 mg/kg, 400 mg/kg or 250 mg/kg): causes nephrotoxicity; blood D-serine concentration [2]: 100 nmol/mL
C[C@@H](N)C(=O)O [D-Ala, D-alanine] | equivalent to drinking water containing all five D-amino acids | equivalent to drinking water containing all five D-amino acids | –
N[C@H](Cc1c[nH]c2ccccc12)C(=O)O [D-Trp, D-tryptophan] | significantly inhibited enteritis more than the drinking water containing all five D-amino acids | significantly inhibited enteritis more than the drinking water containing all five D-amino acids | –
N[C@H](CC(=O)O)C(=O)O [D-Asp, D-aspartic acid] | equivalent to drinking water containing all five D-amino acids | equivalent to drinking water containing all five D-amino acids | –
N[C@H](CCC(=O)O)C(=O)O [D-Glu, D-glutamic acid] | significantly inhibited enteritis more than the drinking water containing all five D-amino acids | significantly inhibited enteritis more than the drinking water containing all five D-amino acids | –
